The values that follow are results of earlier work, collected in US4971799A, “Percutaneous-administration-type pharmaceutical preparation of nitroglycerin” (Sekisui Kagaku Kogyo Kabushiki Kaisha, priority 1987, dated 1990).

For this series the following is noted: intravenous injection.

Molecules are shown by their SMILES.

For `O=[N+]([O-])OCC(CO[N+](=O)[O-])O[N+](=O)[O-]` [nitroglycerin], the Duration of effects entry was “effects are lost after a very short period of time”. The Side effects result (high blood level for a short period) is on record as “headache, dizziness, orthostatic hypotension”.
